Measurements as given in paper PMC10541198, “Specific quinone reductase 2 inhibitors reduce metabolic burden and reverse Alzheimer’s disease phenotype in mice” (The Journal of Clinical Investigation, 2023).
Values joined by “and” are separate entries in the source; they are usually repeats but may differ in a detail not shown here. Equal entries are not always repeated. “Also recorded” adds a separate entry of the source.

Columns and labels:
Sprague Dawley rats = experiment: Incidental novel taste learning, microinjection to anterior insular cortex; type: in vivo, rat; settings: 1 μL of 20 μM to aIC
Description: In order to evaluate the efficacy of some of the leading QR2is in vivo, we carried out double-blind experiments using 2 different modalities (Supplemental Methods), measuring memory that is dependent on different brain areas. First, cortical memory was tested using incidental novel taste learning (see Methods), in which an unfamiliar, but palatable and safe, taste is given for the first time, and the memory for this newly learned taste is then assessed 2 days later. This is done by measuring the volume of the taste consumed upon subsequent exposure to it ([32]) (Figure 4A). […] Next, hippocampal-dependent learning was evaluated using delay fear conditioning (DFC; see Methods) ([33]). […] In order to evaluate any possible effect of acute QR2i microinjection on metabolic stress in the mouse brain, ISR activation was measured by quantifying total and phosphorylated eukaryotic initiation factor 2 α (eIF2α) levels (Supplemental Figure 3A) and lipid peroxidation product, 4-hydroxynonenal (4-HNE; Supplemental Figure 3B), by immunoblot 3 hours after the injection.
Rats were taught to drink from 2 pipettes each filled with 10 mL of water during a 20 minute period, over 3 days. […] The memory for the novel taste was then assessed after 20 minutes of liquid consumption by calculating a preference index as follows: (novel taste consumed/[novel taste consumed+water consumed]) × 100 ([32], [56]). […]

[1] = Solubility in water / saline; type: physicochemical

Structure (SMILES): Cc1ccc(-c2cn3cccc(C)c3n2)cc1S(=O)(=O)N1CCCC1 [YB-808]
- NaCl preference (individual rats) (Sprague Dawley rats): 38.6905 and 81.6144 and 53.3708 and 75.5102 and 61.3924 and 79.4286 and 85.6322 and 50.9317 and 62.1118 and 87.6289 and 81.5476 and 81.8182 and 84.5161 and 50.3067 and 72.807 and 50.2703 and 76.5766 and 61.9048

Structure (SMILES): Cc1ccc(-c2cn3cccc(C)c3n2)cc1S(=O)(=O)N1CCNCC1 [YB-537]
- solubility in water [1]: complete solution; also recorded: water soluble
- solubility in saline vehicle ([1]; PK formulations 2 and 10 mg/ml, HCl salt): fully dissolved
